Experimental data taken from BindingDB's records for patent US20230312571 (Fujian Akeylink Biotechnology, 2023).

Target: Replicase polyprotein 1a (Severe acute respiratory syndrome coronavirus 2, UniProt P0DTC1)
Assay: Evaluation of the in Vitro Anti-Novel Coronavirus Mpro Protease Activity
Protocol: The compound was dissolved in DMSO, and diluted in a 3-fold gradient with Echo655 according to the concentration requirements to 10 concentration points, and duplicate tests were set at each concentration, and the diluted solution was added to a 384-well plate. Mpro protein and substrate were diluted with test buffer (100 mM NaCl, 20 mM Tris-HCl, 1 mM EDTA), and Mpro protein was added to the 384-well test plate, incubated with the compound for 30 min at room temperature, and then the substrate was added thereto, and the test concentration of Mpro protein was 25 nM, and the test concentration of substrate was 25 µM. After incubating for 60 minutes in a 30° C. constant temperature incubator, the fluorescence signal value of Ex/Em=340 nm/490 nm was detected by microplate reader. At the same time, the background well containing the substrate and compound but not containing Mpro protein was detected as control.

Structure (SMILES): N#C[C@H](C[C@@H]1CCNC1=O)NC(=O)[C@@H]1[C@H]2CC[C@H](C2)N1C(=O)[C@@H](NC(=O)C(F)(F)F)C1CCCCC1 [US20230312571, Compound 2]
- IC50: 249 nM
